Measured values: ChEMBL document CHEMBL6103589, “Synthesis and evaluation of novel ebselen derivatives as urease inhibitors for combating Helicobacter pylori infections” (Eur J Med Chem, 2025)
Converted amounts (≈) assume the structure as drawn. The source made the active and inactive calls. The rule behind the calls is not given here.

Tested on: Helicobacter pylori
Experiment: Antibacterial activity against Helicobacter pylori ATCC 43504 incubated for 24 hrs by broth dilution method
Format: functional
Details: dose 1-64 µM/ml

Which results are given for `O=c1c2ccccc2[se]n1-c1ccccc1` [EBSELEN]?
Activity: Dose-dependent-effect; MIC: 32 µg/mL (≈ 117 µM)

Biological target: Urease subunit alpha/Urease subunit beta (Helicobacter pylori (strain ATCC 700392 / 26695) (Campylobacterpylori), UniProt P69996)
Experiment: Inhibition of Helicobacter pylori ATCC 43504 urease preincubated for 75 mins followed by urea addition and measured after 30 mins by ELISA
Format: protein-complex assay
Details: not given

Sequence of Urease subunit alpha/Urease subunit beta (P69996 whole entry): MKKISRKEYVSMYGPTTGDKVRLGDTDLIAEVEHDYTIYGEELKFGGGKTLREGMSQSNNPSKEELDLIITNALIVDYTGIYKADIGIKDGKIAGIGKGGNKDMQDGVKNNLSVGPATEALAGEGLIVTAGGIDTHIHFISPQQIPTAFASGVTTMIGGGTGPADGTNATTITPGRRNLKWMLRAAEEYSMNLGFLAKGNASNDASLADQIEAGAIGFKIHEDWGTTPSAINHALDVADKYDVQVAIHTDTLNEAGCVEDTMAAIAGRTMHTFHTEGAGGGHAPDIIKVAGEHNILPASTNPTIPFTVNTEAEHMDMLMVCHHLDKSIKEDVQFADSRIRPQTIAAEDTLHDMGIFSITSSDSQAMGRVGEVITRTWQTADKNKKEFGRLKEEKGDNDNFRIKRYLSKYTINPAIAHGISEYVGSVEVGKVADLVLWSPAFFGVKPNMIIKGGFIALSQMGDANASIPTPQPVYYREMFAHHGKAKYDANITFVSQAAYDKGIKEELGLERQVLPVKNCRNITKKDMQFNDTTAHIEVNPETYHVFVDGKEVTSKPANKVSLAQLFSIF
Sequence of Urease subunit alpha/Urease subunit beta (P14916 whole entry, further chain): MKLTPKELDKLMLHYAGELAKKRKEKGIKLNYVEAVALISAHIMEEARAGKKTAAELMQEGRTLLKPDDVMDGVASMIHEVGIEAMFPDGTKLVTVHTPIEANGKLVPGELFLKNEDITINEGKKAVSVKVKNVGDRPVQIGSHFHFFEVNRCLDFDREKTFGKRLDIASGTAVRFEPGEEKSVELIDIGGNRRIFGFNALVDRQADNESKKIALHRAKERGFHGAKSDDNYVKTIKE

Which IC50 does the source give for `O=c1c2ccccc2[se]n1-c1ccc(F)cc1` here?
The IC50 was 2.42 µM.

How did the IC50 turn out when `O=c1c2ccccc2[se]n1-c1ccccc1` [EBSELEN] was run?
The IC50 was 1.51 µM.

With `O=c1c2ccccc2[se]n1-c1ccc(F)cc1Cl` as the compound, how does the IC50 read?
Its IC50 is 1.56 µM.

`O=C(Oc1n[se]c2ccccc12)c1ccc(F)c(F)c1F` was tested. Which IC50 did it give?
The IC50 was 1.1 µM.

For `O=C(c1ccccc1C(F)(F)F)n1[se]c2ccccc2c1=O`, which IC50 is on record?
The IC50 was 3.99 µM.

`COc1ccccc1C(=O)n1[se]c2ccccc2c1=O` was tested. Which IC50 did it give?
The IC50 was 1.1 µM.

For `O=C(c1ccc(Cl)cc1)n1[se]c2ccccc2c1=O`, which IC50 is on record?
Its IC50 is 1.93 µM.

`O=C(c1cc(F)ccc1F)n1[se]c2ccccc2c1=O` was tested. Which IC50 did it give?
Its IC50 is 2.98 µM.

For `O=C(c1ccccc1Cl)n1[se]c2ccccc2c1=O`, which IC50 is on record?
Its IC50 is 1.46 µM.

How did the IC50 turn out when `CC(C)(C)c1ccc(-n2[se]c3ccccc3c2=O)cc1` was run?
The IC50 was 15.1 µM.

With `COC(=O)c1ccc(-n2[se]c3ccccc3c2=O)cc1` as the compound, how does the IC50 read?
The IC50 was 5.23 µM.

With `O=C(c1cccc(F)c1)n1[se]c2ccccc2c1=O` as the compound, how does the IC50 read?
The IC50 was 0.44 µM.

`O=C(Oc1n[se]c2ccccc12)c1ccccc1F` was tested. Which IC50 did it give?
The IC50 was 0.31 µM.

Which IC50 does the source give for `O=C(Oc1n[se]c2ccccc12)c1ccc(F)cc1F` here?
The IC50 was 0.36 µM.

How did the IC50 turn out when `O=c1c2ccccc2[se]n1-c1ccc(Cl)cc1` was run?
Its IC50 is 2.52 µM.

`O=C(c1ccccc1[N+](=O)[O-])n1[se]c2ccccc2c1=O` was tested. Which IC50 did it give?
Its IC50 is 2.65 µM.

For `O=C(c1ccccc1Br)n1[se]c2ccccc2c1=O`, which IC50 is on record?
The IC50 was 1.5 µM.

With `O=C(c1cccc(C(F)(F)F)c1)n1[se]c2ccccc2c1=O` as the compound, how does the IC50 read?
The IC50 was 1.46 µM.

With `COC(=O)c1cccc(-n2[se]c3ccccc3c2=O)c1` as the compound, how does the IC50 read?
The IC50 was 4.66 µM.

`COc1cccc(C(=O)n2[se]c3ccccc3c2=O)c1` was tested. Which IC50 did it give?
Its IC50 is 1.98 µM.

With `O=C(c1cccc(F)c1F)n1[se]c2ccccc2c1=O` as the compound, how does the IC50 read?
Its IC50 is 1.91 µM.

`O=C(c1ccc(F)c(F)c1F)n1[se]c2ccccc2c1=O` was tested. Which IC50 did it give?
Its IC50 is 3.48 µM.

How did the IC50 turn out when `O=C(c1c(F)cccc1F)n1[se]c2ccccc2c1=O` was run?
The IC50 was 3.62 µM.

How did the IC50 turn out when `O=C(c1cc(F)c(F)cc1F)n1[se]c2ccccc2c1=O` was run?
The IC50 was 3.29 µM.

With `O=C(c1cccc(Br)c1)n1[se]c2ccccc2c1=O` as the compound, how does the IC50 read?
Its IC50 is 0.82 µM.

For `O=c1c2ccccc2[se]n1-c1cccc(Cl)c1`, which IC50 is on record?
The IC50 was 2.76 µM.

Which IC50 does the source give for `N#Cc1cccc(-n2[se]c3ccccc3c2=O)c1` here?
The IC50 was 1.32 µM.

For `O=c1c2ccccc2[se]n1-c1ccc(F)c(F)c1`, which IC50 is on record?
Its IC50 is 3.55 µM.

With `O=c1c2ccccc2[se]n1-c1c(F)cccc1Cl` as the compound, how does the IC50 read?
Its IC50 is 1.53 µM.

Which IC50 does the source give for `O=C(Oc1n[se]c2ccccc12)c1cccc(F)c1F` here?
Its IC50 is 0.44 µM.

With `O=c1c2ccccc2[se]n1-c1ccc(C(F)(F)F)cc1F` as the compound, how does the IC50 read?
Its IC50 is 5.21 µM.

For `Cc1cccc(C(=O)n2[se]c3ccccc3c2=O)c1`, which IC50 is on record?
Its IC50 is 5.41 µM.

For `O=c1c2ccccc2[se]n1-c1ccc(OC(F)(F)F)cc1`, which IC50 is on record?
The IC50 was 10.6 µM.

Which IC50 does the source give for `O=C(c1cccc([N+](=O)[O-])c1)n1[se]c2ccccc2c1=O` here?
Its IC50 is 1.23 µM.

With `O=C(c1ccc(F)cc1F)n1[se]c2ccccc2c1=O` as the compound, how does the IC50 read?
Its IC50 is 1.99 µM.

`Cc1ccccc1C(=O)n1[se]c2ccccc2c1=O` was tested. Which IC50 did it give?
Its IC50 is 3.17 µM.

For `O=C(c1cccc(Cl)c1)n1[se]c2ccccc2c1=O`, which IC50 is on record?
The IC50 was 1.31 µM.

How did the IC50 turn out when `O=C(Oc1n[se]c2ccccc12)c1cc(F)ccc1F` was run?
The IC50 was 0.86 µM.

How did the IC50 turn out when `COc1ccc(C(=O)n2[se]c3ccccc3c2=O)cc1` was run?
The IC50 was 1.73 µM.

Which IC50 does the source give for `O=C(c1ccc(Br)cc1)n1[se]c2ccccc2c1=O` here?
Its IC50 is 0.94 µM.

Which IC50 does the source give for `Cc1cccc(-n2[se]c3ccccc3c2=O)c1` here?
The IC50 was 3.19 µM.

How did the IC50 turn out when `O=c1c2ccccc2[se]n1-c1ccccc1Cl` was run?
The IC50 was 1.83 µM.

Which IC50 does the source give for `O=C(c1ccccc1F)n1[se]c2ccccc2c1=O` here?
Its IC50 is 0.87 µM.

`COc1cccc(-n2[se]c3ccccc3c2=O)c1` was tested. Which IC50 did it give?
The IC50 was 6.66 µM.

With `O=c1c2ccccc2[se]n1-c1cccc(OC(F)(F)F)c1` as the compound, how does the IC50 read?
Its IC50 is 7.23 µM.

With `O=C(Oc1n[se]c2ccccc12)c1ccc(F)cc1` as the compound, how does the IC50 read?
The IC50 was 0.34 µM.

How did the IC50 turn out when `O=C(Oc1n[se]c2ccccc12)c1c(F)cccc1F` was run?
The IC50 was 1.12 µM.

For `COc1ccc(-n2[se]c3ccccc3c2=O)cc1`, which IC50 is on record?
The IC50 was 7.58 µM.

How did the IC50 turn out when `O=C(c1ccc(F)c(F)c1)n1[se]c2ccccc2c1=O` was run?
Its IC50 is 3.36 µM.

Which IC50 does the source give for `O=C(c1ccc([N+](=O)[O-])cc1)n1[se]c2ccccc2c1=O` here?
The IC50 was 1.96 µM.

`Cc1ccc(-n2[se]c3ccccc3c2=O)cc1C(F)(F)F` was tested. Which IC50 did it give?
The IC50 was 12.1 µM.

With `O=C(c1ccc(C(F)(F)F)cc1)n1[se]c2ccccc2c1=O` as the compound, how does the IC50 read?
The IC50 was 3.54 µM.

`O=c1c2ccccc2[se]n1-c1cc(F)ccc1Cl` was tested. Which IC50 did it give?
The IC50 was 1.34 µM.

How did the IC50 turn out when `Cc1ccc(C(=O)n2[se]c3ccccc3c2=O)cc1` was run?
Its IC50 is 3.75 µM.

`O=C(c1ccc(F)cc1)n1[se]c2ccccc2c1=O` was tested. Which IC50 did it give?
The IC50 was 0.89 µM.

Tested on: Helicobacter pylori
Experiment: Antibacterial activity against Helicobacter pylori ATCC 43504 assessed as inhibition of bacterial colonies at 32 ug/mL incubated for 24 hrs by broth dilution method
Format: functional, organism-based
Details: dose 32.0 µg/ml

With `O=c1c2ccccc2[se]n1-c1ccccc1` [EBSELEN] as the compound, how does the Activity read?
Its Activity is “Active”.
